Experimental data from PMC11129182, “Development of Inhibitors, Probes, and PROTAC Provides a Complete Toolbox to Study PARK7 in the Living Cell” (Journal of Medicinal Chemistry, 2024).

Tested on: other proteins of A549 cells
Experiment: TMT-based global proteomic profiling in A549 cells, other proteins
Format: cell-based, Homo sapiens
Details: A549 cells, 5 μM, 8 h
Procedure: A549 cells were seeded into 10 cm plates in 10 mL of media. […] Cells were lysed using a 5% SDS lysis buffer (100 mM Tris-HCl, pH 7.6) and were incubated at 95 °C for 4 min. Protein determination was performed using the Pierce BCA Gold protein assay. 100 μg of protein of each sample was reduced and alkylated, and excess iodoacetamide was quenched using 5 mM TCEP, 15 mM iodoacetamide, and 10 mM DTT, respectively. The protein was pelleted down using chloroform/methanol precipitation, and the resulting pellets were resolubilized in 40 mM HEPES pH 8.4. […] The Pierce BCA Gold protein assay was used to determine the peptide concentration. The peptides were labeled with TMTpro Label Reagents in a 1:4 ratio by mass (peptides/TMT reagents) for 1 h at RT. Five μL of 6% hydroxylamine was added to quench excess TMT reagent and incubated for 15 min at RT. Samples were pooled and lyophilized. The sample was subsequently fractionated on an Agilent 1200 series HPLC system (Agilent Technologies). 75 μg of the pooled sample was dissolved in solvent A (10 mM NH4HCO3, pH 8.4), injected onto, and eluted from an Agilent Eclipse Plus C18 2.1 × 150 mm 3.5 μm column (Agilent Technologies). The gradient was run from 2 to 90% solvent B (10 mM NH4HCO3, pH 8.4 final concentration, 20/80 water/acetonitrile v/v) in 30 min at a flow rate of 200 μL/min. Twelve fractions were made; every 30 s a fraction was collected in a vial, and the eluate of the next 30 s was collected in the next vial and so on until it loops back to the first vial (5 loops of 6 min each). Afterward, the samples were lyophilized.
2.2.07 (www.matrixscience.com) for protein identification. Mascot searches were with 10 ppm and 0.02 Da deviation for precursor and fragment mass, respectively. Enzyme specificity was set to trypsin. Up to two missed cleavages were allowed. Methionine oxidation and acetyl on protein N-terminus were set as variable modifications. Carbamidomethyl on Cys and TMTpro on Lys and N-terminus were set as fixed modifications. Protein FDR of 1% was set. Normalization was on total peptide amount. The values for each TMT channel were normalized to the average of the values for the DMSO samples for the same peptide, and these values were named FC. The log2 FC values of all replicates for the same master protein were averaged to give the “Average log2 FC”. A one-sample t test was performed against the null hypothesis of log2 FC = 0, and the resulting −log10p values were reported for each protein. The volcano plot was plotted using GraphPad Prism v.9.01.

N#CN1CC[C@@H](C(=O)Nc2nc3c(s2)CN(C(=O)c2cc(-n4ccnn4)ccc2F)CC3)C1 [Compound 84, (R)-1-Cyano-N-(5-(2-fluoro-5-(1H-1,2,3-triazol-1-yl)benzoyl)-4,5,6,7-tetrahydrothiazolo[5,4-c]pyridin-2-yl)pyrrolidine-3-carboxamide]
DOP1B protein level (total proteome profiling): downregulated
